In brackets after ≈: the same amount, converted by molar mass. Where two headings read alike, the source gives them in different places.
Tests used:
physchem = conditions: aqueous buffer, kinetic from dmso stock
Human PKa = Human PKa (Homo sapiens, UniProt P03952); assay: biochemical; assay type: biochemical
Rat pharmacokinetics = assay type: in vivo, Sprague-Dawley rats; conditions: male, Sprague-Dawley, plasma, iv, 1 mg/kg
Dog pharmacokinetics = assay type: in vivo, beagle dogs; conditions: male, beagle, plasma, iv, 1 mg/kg
in vitro [1] = conditions: human, Caco-2, pH 7.4
in vitro [2] = conditions: human, microsomes
tissue kallikrein (KLK1) = tissue kallikrein (KLK1) (Homo sapiens, UniProt P06870); assay: biochemical; conditions: IC50 / off target protease selectivity
tissue kallikrein (KLK1), sequence (P06870 25-262): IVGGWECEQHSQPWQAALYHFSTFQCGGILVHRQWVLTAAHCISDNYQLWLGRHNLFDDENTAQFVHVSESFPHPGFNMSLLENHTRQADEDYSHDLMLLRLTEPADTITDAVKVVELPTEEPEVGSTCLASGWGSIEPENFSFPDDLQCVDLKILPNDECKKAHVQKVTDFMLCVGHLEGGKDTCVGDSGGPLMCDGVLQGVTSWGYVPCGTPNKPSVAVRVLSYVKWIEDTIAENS

plasmin = plasmin (Homo sapiens, UniProt P00747); assay: biochemical; conditions: IC50 / off target protease selectivity
plasmin, sequence (P00747 581-810 limits assumed): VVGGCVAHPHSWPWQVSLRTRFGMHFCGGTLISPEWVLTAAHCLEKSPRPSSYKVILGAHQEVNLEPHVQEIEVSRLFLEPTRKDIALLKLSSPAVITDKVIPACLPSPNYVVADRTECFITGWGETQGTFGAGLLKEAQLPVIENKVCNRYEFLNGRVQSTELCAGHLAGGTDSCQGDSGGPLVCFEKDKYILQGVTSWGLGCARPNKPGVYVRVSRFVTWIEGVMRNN
plasmin, sequence (P00747 97-580 partner limits assumed): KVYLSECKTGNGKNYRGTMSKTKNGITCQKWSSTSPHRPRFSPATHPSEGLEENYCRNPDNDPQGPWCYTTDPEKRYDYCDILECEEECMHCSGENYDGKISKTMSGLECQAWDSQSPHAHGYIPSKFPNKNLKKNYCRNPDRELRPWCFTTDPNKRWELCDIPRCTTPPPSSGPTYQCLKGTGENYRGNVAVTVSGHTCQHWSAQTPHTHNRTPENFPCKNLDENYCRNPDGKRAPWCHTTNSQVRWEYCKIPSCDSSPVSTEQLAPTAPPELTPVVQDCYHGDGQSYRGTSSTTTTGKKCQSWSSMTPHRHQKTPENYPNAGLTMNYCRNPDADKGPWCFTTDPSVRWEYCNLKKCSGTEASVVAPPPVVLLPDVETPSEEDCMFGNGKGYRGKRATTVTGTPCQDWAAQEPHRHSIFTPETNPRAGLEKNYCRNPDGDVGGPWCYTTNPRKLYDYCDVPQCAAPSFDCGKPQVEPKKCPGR

[3] = Human plasma protein binding; assay type: in vitro ADME; conditions: % bound
factor XIa = factor XIa (Homo sapiens, UniProt P03951); assay: biochemical; conditions: IC50 / off target protease selectivity, FXIa
factor XIa, sequence (P03951 388-625 limits assumed): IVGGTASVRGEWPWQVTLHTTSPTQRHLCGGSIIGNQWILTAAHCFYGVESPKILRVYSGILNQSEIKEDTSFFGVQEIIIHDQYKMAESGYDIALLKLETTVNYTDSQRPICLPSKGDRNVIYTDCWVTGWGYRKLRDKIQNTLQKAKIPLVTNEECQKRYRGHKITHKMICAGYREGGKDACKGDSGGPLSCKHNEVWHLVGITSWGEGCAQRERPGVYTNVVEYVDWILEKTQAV
factor XIa, sequence (P03951 19-387 partner limits assumed): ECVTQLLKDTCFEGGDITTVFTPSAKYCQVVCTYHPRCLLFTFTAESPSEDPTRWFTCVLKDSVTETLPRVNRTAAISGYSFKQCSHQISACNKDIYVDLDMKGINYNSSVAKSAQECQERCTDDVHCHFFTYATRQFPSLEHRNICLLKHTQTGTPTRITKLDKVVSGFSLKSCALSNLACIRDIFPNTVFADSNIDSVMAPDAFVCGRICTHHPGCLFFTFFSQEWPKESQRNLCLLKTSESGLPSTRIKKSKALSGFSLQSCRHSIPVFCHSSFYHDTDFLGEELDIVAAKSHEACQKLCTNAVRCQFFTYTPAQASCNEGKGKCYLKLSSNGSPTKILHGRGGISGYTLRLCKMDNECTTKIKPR

thrombin = thrombin (Homo sapiens, UniProt P00734); assay: biochemical; conditions: IC50 / off target protease selectivity
trypsin = conditions: read-out: IC50 / off target protease selectivity, trypsin
panel of CYP450 enzymes = assay: CYP450 inhibition panel as a whole; conditions: up to 25 μM
factor XIIa = target: T1, factor XIIa (Homo sapiens, UniProt P00748); assay: biochemical; conditions: IC50 / off target protease selectivity, FXIIa
T1 sequence (P00748 373-615 limits assumed): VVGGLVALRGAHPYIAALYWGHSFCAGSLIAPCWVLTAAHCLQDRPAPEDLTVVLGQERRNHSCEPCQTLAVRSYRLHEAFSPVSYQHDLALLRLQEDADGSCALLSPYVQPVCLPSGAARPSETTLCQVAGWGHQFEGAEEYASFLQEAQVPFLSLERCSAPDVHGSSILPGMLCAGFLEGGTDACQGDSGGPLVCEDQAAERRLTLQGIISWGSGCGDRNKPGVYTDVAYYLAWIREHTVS

[4] = Thermodynamic solubility in FaSSIF / FaSSGF; assay type: physicochemical; conditions: pH 6.5, solubility FaSSIF, theoretical concentration 1 mg/mL
hERG channel = hERG channel (Homo sapiens, UniProt Q12809); assay: hERG whole-cell patch clamp; conditions: highest level tested 33 μM
hERG channel, sequence (Q12809 whole entry): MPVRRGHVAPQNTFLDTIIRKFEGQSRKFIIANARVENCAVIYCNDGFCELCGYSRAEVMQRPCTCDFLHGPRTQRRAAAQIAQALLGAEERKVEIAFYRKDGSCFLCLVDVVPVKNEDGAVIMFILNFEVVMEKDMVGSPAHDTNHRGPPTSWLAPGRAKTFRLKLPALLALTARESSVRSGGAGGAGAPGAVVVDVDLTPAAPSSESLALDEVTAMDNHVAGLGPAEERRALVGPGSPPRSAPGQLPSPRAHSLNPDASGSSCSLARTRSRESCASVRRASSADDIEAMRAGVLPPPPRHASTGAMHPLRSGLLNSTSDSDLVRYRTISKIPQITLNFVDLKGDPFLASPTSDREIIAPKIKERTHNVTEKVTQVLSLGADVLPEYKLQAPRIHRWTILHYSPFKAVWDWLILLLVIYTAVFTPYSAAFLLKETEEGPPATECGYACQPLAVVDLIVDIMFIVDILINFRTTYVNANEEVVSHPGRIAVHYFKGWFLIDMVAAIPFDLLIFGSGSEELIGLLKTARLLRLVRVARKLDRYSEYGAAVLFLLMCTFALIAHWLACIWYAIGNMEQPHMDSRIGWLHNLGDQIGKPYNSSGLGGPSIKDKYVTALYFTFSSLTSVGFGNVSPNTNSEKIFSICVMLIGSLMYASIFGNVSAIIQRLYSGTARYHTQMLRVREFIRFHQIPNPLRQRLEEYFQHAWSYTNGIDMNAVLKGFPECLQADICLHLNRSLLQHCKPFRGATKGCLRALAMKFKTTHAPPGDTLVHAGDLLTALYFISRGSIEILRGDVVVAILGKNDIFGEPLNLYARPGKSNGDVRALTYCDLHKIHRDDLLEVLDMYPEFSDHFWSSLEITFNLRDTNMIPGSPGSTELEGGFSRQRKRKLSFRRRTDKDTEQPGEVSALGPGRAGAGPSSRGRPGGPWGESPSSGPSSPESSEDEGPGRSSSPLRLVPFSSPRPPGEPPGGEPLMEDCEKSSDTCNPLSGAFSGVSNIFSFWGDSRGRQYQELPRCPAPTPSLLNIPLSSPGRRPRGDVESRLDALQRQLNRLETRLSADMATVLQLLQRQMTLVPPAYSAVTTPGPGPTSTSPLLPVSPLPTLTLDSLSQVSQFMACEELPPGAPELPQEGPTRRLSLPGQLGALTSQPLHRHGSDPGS

tryptase = assay: Protease selectivity, fluorogenic substrate cleavage assay; assay type: biochemical, human; conditions: read-out: IC50 / off target protease selectivity, tryptase
factor Xa = factor Xa (Homo sapiens, UniProt P00742); conditions: read-out: IC50 / off target protease selectivity, FXa
factor Xa, sequence (P00742 235-488 limits assumed): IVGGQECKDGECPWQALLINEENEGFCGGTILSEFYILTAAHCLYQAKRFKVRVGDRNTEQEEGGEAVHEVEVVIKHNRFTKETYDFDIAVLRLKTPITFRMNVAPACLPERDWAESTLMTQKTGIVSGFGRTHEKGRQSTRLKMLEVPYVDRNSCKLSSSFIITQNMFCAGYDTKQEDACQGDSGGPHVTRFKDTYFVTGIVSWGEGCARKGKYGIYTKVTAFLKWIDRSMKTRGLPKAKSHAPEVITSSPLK
factor Xa, sequence (P00742 41-179 partner limits assumed): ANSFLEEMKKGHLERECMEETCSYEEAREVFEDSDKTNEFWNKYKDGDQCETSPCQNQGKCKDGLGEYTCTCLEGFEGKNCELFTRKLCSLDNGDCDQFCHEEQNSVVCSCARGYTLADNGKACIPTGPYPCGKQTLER

[5] = Measured pKa, PION UV-metric method; assay type: physicochemical
bacterial mutagenicity = assay: Non-GLP bacterial mutagenicity Ames test

Human PKa, sequence (P03952 391-638 limits assumed): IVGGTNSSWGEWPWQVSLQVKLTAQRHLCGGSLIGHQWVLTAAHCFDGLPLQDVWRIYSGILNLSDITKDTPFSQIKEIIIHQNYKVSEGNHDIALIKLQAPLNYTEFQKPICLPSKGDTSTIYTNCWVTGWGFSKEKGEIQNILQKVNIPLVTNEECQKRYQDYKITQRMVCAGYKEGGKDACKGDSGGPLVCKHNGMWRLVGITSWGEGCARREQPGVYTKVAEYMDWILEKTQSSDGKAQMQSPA
Human PKa, sequence (P03952 20-390 partner limits assumed): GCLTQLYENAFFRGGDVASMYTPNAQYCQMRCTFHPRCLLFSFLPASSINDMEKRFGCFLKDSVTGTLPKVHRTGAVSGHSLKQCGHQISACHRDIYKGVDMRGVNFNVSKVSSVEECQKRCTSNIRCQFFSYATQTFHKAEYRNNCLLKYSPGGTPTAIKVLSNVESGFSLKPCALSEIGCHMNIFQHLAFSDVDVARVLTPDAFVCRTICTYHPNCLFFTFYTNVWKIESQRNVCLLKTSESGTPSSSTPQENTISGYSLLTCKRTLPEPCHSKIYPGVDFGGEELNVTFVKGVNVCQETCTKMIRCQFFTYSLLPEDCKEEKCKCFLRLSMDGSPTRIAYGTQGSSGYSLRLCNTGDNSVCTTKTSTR

COCc1nn(Cc2ccc(Cn3ccccc3=O)cc2)cc1C(=O)NCc1cccc(O)c1F [Compound 13g, COCc1nn(cc1C(=O)NCc1cccc(c1F)O)Cc1ccc(cc1)CN1C=CC=CC1=O]
kinetic sol 0.1 N HCl: >0.12 mg/mL | kinetic sol aq assay buffer (pH 7.4): >0.12 mg/mL

COCc1nn(Cc2ccc(Cn3ccccc3=O)cc2)cc1C(=O)NCc1cccc(OC)c1F [Compound 13d, COCc1nn(cc1C(=O)NCc1cccc(c1F)OC)Cc1ccc(cc1)CN1C=CC=CC1=O]
kinetic sol 0.1 N HCl: >0.12 mg/mL | kinetic sol aq assay buffer (pH 7.4): >0.12 mg/mL

CCc1cccc(CNC(=O)c2cn(Cc3ccc(Cn4ccccc4=O)cc3)nc2COC)c1F [Compound 13h, CCc1cccc(c1F)CNC(=O)c1cn(nc1COC)Cc1ccc(cc1)CN1C=CC=CC1=O]
solubility kinetic (physchem): 29 to 59 µg/mL (≈ 59.4 to 121 µM) | LLE (Human PKa): 3.7 | kinetic sol aq assay buffer (pH 7.4): >0.12 mg/mL

COCc1nn(Cc2ccc(Cn3ccccc3=O)cc2)cc1C(=O)NCc1c(Cl)ccc(OC)c1F [Compound 13j, COCc1nn(cc1C(=O)NCc1c(ccc(c1F)OC)Cl)Cc1ccc(cc1)CN1C=CC=CC1=O]
kinetic sol 0.1 N HCl: >0.12 mg/mL | kinetic sol aq assay buffer (pH 7.4): >0.12 mg/mL

COCc1nn(Cc2ccc(Cn3ccccc3=O)cc2)cc1C(=O)NCc1c(F)ccc(OC)c1F [Compound 13b, COCc1nn(cc1C(=O)NCc1c(ccc(c1F)OC)F)Cc1ccc(cc1)CN1C=CC=CC1=O]
kinetics (in words) (Human PKa): fast kinetics | LLE (Human PKa; lipophilic ligand efficiency): 5.4 | kinetic sol 0.1 N HCl: >0.12 mg/mL | kinetic sol aq assay buffer (pH 7.4): >0.12 mg/mL | clearance at 24 h (Rat pharmacokinetics): 12.8 mL/min/kg | clearance at 24 h (Dog pharmacokinetics): 11.5 mL/min/kg

Nc1nccc2cc(CNC(=O)c3cnn(Cc4ccc(Cn5ccccc5=O)cc4)c3)ccc12 [Compound 6, Nc1nccc2cc(ccc12)CNC(=O)c1cnn(c1)Cc1ccc(cc1)CN1C=CC=CC1=O]
Papp A→B (in vitro [1]): 2 ×10⁻⁶ cm/s | microsomal CLint (in vitro [2]): 37 µL/min/mg

COc1ccnc(CNC(=O)c2cn(Cc3ccc(Cn4ccccc4=O)cc3)nc2C(F)(F)F)c1F [Compound 16, COc1ccnc(c1F)CNC(=O)c1cn(nc1C(F)(F)F)Cc1ccc(cc1)CN1C=CC=CC1=O]
IC50 (tissue kallikrein (KLK1)): > 10 µM | IC50 (plasmin): > 10 µM | human plasma protein binding (PPB) [3]: 87% | IC50 (factor XIa): > 10 µM | IC50 (thrombin): > 10 µM | IC50 (trypsin): > 10 µM | kinetics (in words) (Human PKa): fast kinetics | CYP450 panel profile (in words) (panel of CYP450 enzymes): clean profiles up to the highest concentration tested | clearance at 24 h (Rat pharmacokinetics): 7.1 mL/min/kg | clearance at 24 h (Dog pharmacokinetics): 10 mL/min/kg | IC50 (factor XIIa): > 10 µM

COc1cccc(CNC(=O)c2cn(Cc3ccc(Cn4ccccc4=O)cc3)nc2N(C)C)c1F [Compound 13e, COc1cccc(c1F)CNC(=O)c1cn(nc1N(C)C)Cc1ccc(cc1)CN1C=CC=CC1=O]
kinetic sol 0.1 N HCl: >0.12 mg/mL | kinetic sol aq assay buffer (pH 7.4): >0.12 mg/mL

COCc1nn(Cc2ccc(Cn3ccccc3=O)cc2)cc1C(=O)NCc1cc(OC)ccc1F [Compound 13l, COCc1nn(cc1C(=O)NCc1cc(ccc1F)OC)Cc1ccc(cc1)CN1C=CC=CC1=O]
kinetic sol 0.1 N HCl: >0.12 mg/mL | kinetic sol aq assay buffer (pH 7.4): >0.12 mg/mL

COCc1nn(Cc2ccc(Cn3ccccc3=O)cc2)cc1C(=O)NCc1nccc(OC)c1C [Compound 14s, COCc1nn(cc1C(=O)NCc1nccc(c1C)OC)Cc1ccc(cc1)CN1C=CC=CC1=O]
IC50 (tissue kallikrein (KLK1)): > 10 µM | IC50 (plasmin): > 10 µM | solubility at 4 h [4]: > 100 µg/mL | IC50 (factor XIa): > 10 µM | IC50 (thrombin): 7.5 µM | clearance at 24 h (Rat pharmacokinetics): 14 mL/min/kg | IC50 (factor XIIa): > 10 µM

COCc1nn(Cc2ccc(Cn3ccccc3=O)cc2)cc1C(=O)NCc1cccc(OC(F)F)c1F [Compound 13i, COCc1nn(cc1C(=O)NCc1cccc(c1F)OC(F)F)Cc1ccc(cc1)CN1C=CC=CC1=O]
solubility kinetic (physchem): 63 to 120 µg/mL (≈ 120 to 228 µM) | IC50 (Human PKa): 0.15 µM | LLE (Human PKa; lipophilic ligand efficiency): 4.2 | kinetic sol aq assay buffer (pH 7.4): >0.12 mg/mL

COc1cccc(CNC(=O)c2cn(Cc3ccc(Cn4ccccc4=O)cc3)nc2C2CC2)c1F [Compound 13f, COc1cccc(c1F)CNC(=O)c1cn(nc1C1CC1)Cc1ccc(cc1)CN1C=CC=CC1=O]
LLE (Human PKa; lipophilic ligand efficiency): 4.4 | kinetic sol 0.1 N HCl: >0.11 mg/mL | kinetic sol aq assay buffer (pH 7.4): 0.058–0.11 mg/mL

COCc1nn(Cc2ccc(Cn3ccccc3=O)cc2)cc1C(=O)NCc1c(C#N)ccc(OC)c1F [Compound 13k, COCc1nn(cc1C(=O)NCc1c(c(ccc1C#N)OC)F)Cc1ccc(cc1)CN1C=CC=CC1=O]
kinetic sol 0.1 N HCl: >0.12 mg/mL | kinetic sol aq assay buffer (pH 7.4): >0.12 mg/mL | clearance at 24 h (Rat pharmacokinetics): 16 mL/min/kg

COCc1nn(Cc2ccc(Cn3ccccc3=O)cc2)cc1C(=O)NCc1nccc(OC)c1F [Compound 14w, 3-Methoxymethyl-1-[4-(2-oxo-2H-pyridin-1-ylmethyl)-benzyl]-1H-pyrazole-4-carboxylic Acid (3-Fluoro-4-methoxy-pyridin-2-ylmethyl)-amide]
inhibition of hERG channel (in words) (hERG channel): no significant inhibition | IC50 (tryptase): > 10 µM | IC50 (factor Xa): > 10 µM | human plasma protein binding (PPB) [3]: 77% | IC50 (trypsin): > 10 µM | IC50 (trypsin; listed as Sebetralstat): > 40 µM | kinetics (in words) (Human PKa): fast kinetics | pKa [5]: 3.6 | CYP450 panel profile (in words) (panel of CYP450 enzymes): clean profiles up to the highest concentration tested | clearance at 24 h (Rat pharmacokinetics): 11.7 mL/min/kg | clearance at 24 h (Dog pharmacokinetics): 8.7 mL/min/kg | Non-GLP Ames (bacterial mutagenicity): no risk of genotoxicity

— PMC9620001 (Journal of Medicinal Chemistry, 2022)
